# Assays:
# [1] = target: T1, EP4 (Homo sapiens, UniProt P35408); experiment: Functional calcium flux assay, EP4; format: cell-based; details: stably transfected HEK293 cells; PGE2 10 nM; read-out: EP4 Ca2+-flux assay IC50
# T1 construct: host or cells: stably transfected HEK293 cells co-expressing a promiscuous G protein and a clytin variant
# [2] = target: EP2 (Homo sapiens, UniProt P43116);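 note: functional calcium flux assay in stably transfected HEK293 cells expressing EP2 coupled via a promiscuous G protein, clytin luminescence read as area under the curve, 30 min compound preincubation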
# Sequence of EP2 (P43116 whole entry): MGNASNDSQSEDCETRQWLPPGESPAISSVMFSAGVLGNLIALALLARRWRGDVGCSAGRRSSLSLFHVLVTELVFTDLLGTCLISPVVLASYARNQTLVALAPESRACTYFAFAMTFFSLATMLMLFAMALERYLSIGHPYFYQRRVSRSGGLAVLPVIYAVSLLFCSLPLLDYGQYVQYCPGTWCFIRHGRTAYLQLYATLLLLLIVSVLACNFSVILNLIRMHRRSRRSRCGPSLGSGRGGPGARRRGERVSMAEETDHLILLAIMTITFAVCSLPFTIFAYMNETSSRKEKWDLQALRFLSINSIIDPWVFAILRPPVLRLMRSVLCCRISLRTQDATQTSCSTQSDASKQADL
# T1 sequence (P35408 whole entry): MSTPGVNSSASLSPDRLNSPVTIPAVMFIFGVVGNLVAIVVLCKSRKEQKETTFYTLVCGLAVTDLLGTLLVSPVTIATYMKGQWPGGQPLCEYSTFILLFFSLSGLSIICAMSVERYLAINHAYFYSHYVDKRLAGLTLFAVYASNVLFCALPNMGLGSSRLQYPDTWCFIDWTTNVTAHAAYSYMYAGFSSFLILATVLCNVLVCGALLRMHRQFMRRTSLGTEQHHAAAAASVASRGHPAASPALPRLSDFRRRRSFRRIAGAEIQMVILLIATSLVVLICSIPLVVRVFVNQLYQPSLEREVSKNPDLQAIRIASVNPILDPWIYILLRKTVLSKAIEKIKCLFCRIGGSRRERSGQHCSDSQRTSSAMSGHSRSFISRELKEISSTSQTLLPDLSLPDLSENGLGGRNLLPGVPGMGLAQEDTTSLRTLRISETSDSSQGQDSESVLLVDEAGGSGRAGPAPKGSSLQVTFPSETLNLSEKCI
structure (smiles),measurement,setting,value
"COc1ccc2cc(Cn3ccc4c(F)ccc(C(=O)NC5CC6(C5)CC(C(=O)O)C6)c43)ccc2c1 (stereo not drawn) [Example 38, (Sa)-6-(4-fluoro-1-((6-methoxynaphthalen-2-yl)methyl)-1H-indole-7-carboxamido)spiro[3.3]heptane-2-carboxylic acid]",IC50,[1],< 1 nM
same,IC50,[2],< 25 nM
"O=C(NC1CC2(C1)CC(C(=O)O)C2)c1ccc(F)c2ccn(Cc3ccc4ccc(Br)cc4c3)c12 (stereo not drawn) [Example 44, (Sa)-6-(1-((7-bromonaphthalen-2-yl)methyl)-4-fluoro-1H-indole-7-carboxamido)spiro[3.3]heptane-2-carboxylic acid]",IC50,[1],< 1 nM
same,IC50,[2],30 nM
"COc1cccc(-c2ccc(C(C)n3ncc4c(Cl)ccc(C(=O)NC5CC6(C5)CC(C(=O)O)C6)c43)cc2)c1 (racemic) [Example 122, (Sa)-6-(4-chloro-1-((racemic)-1-(3′-methoxy-[1,1′-biphenyl]-4-yl)-ethyl)-1H-indazole-7-carboxamido)spiro[3.3]heptane-2-carboxylic acid]",IC50,[1],4.7 nM
same,IC50,[2],< 25 nM
"COc1ccc(-c2ccc(C(C)n3ccc4c(F)ccc(C(=O)NC5CC6(C5)CC(C(=O)O)C6)c43)cc2)cn1 (racemic) [Example 119, (Sa)-6-(4-fluoro-1-((racemic)-1-(4-(6-methoxypyridin-3-yl)phenyl)-ethyl)-1H-indole-7-carboxamido)spiro[3.3]heptane-2-carboxylic acid]",IC50,[1],3.8 nM
same,IC50,[2],59 nM
"COc1cc(C(=O)NC2CC3(CC(CC(=O)O)C3)C2)c2c(cnn2Cc2ccc(-c3ccccc3)cc2)c1 (stereo not drawn) [Example 164, (Ra)-2-(6-(1-([1,1′-Biphenyl]-4-ylmethyl)-5-methoxy-1H-indazole-7-carboxamido)spiro[3.3]heptan-2-yl)acetic acid]",IC50,[1],< 1 nM
same,IC50,[2],< 25 nM
"COc1cc(C#N)cc(-c2ccc(C(C)n3ncc4c(Cl)ccc(C(=O)NC5CC6(C5)CC(C(=O)O)C6)c43)cc2)c1 (racemic) [Example 123, (Sa)-6-(4-chloro-1-((racemic)-1-(3′-cyano-5′-methoxy-[1,1′-biphenyl]-4-yl)-ethyl)-1H-indazole-7-carboxamido)spiro[3.3]heptane-2-carboxylic acid]",IC50,[1],12 nM
same,IC50,[2],60 nM
"O=C(NC1CC2(C1)CC(C(=O)O)C2)c1ccc(Cl)c2cnn(Cc3ccc4ccccc4c3)c12 (stereo not drawn) [Example 96, (Sa)-6-(4-chloro-1-(naphthalen-2-ylmethyl)-1H-indazole-7-carboxamido)spiro[3.3]heptane-2-carboxylic acid]",IC50,[1],< 1 nM
same,IC50,[2],< 25 nM
"CCOc1nccc(-c2ccc(Cn3ncc4c(Cl)ccc(C(=O)NC5CC6(C5)CC(C(=O)O)C6)c43)cc2)n1 (stereo not drawn) [Example 84, (Sa)-6-(4-chloro-1-(4-(2-ethoxypyrimidin-6-yl)benzyl)-1H-indazole-7-carboxamido)spiro[3.3]heptane-2-carboxylic acid]",IC50,[1],< 1 nM
same,IC50,[2],< 25 nM
"CNC(=O)c1cccc(-c2ccc(Cn3ccc4c(F)ccc(C(=O)NC5CC6(C5)CC(C(=O)O)C6)c43)cc2)n1 (stereo not drawn) [Example 62, (Sa)-6-(4-fluoro-1-(4-(6-(methylcarbamoyl)pyridin-2-yl)benzyl)-1H-indole-7-carboxamido)spiro[3.3]heptane-2-carboxylic acid]",IC50,[1],< 1 nM
same,IC50,[2],54 nM
"COc1cccc(-c2ccc(C(C)n3ccc4c(F)ccc(C(=O)NC5CC6(C5)CC(C(=O)O)C6)c43)cc2)c1 (single isomer, unassigned) [Example 128, (Sa)-6-(4-fluoro-1-((R) or (S)-1-(3′-methoxy-[1,1′-biphenyl]-4-yl)-ethyl)-1H-indole-7-carboxamido)spiro[3.3]heptane-2-carboxylic acid]",IC50,[1],1.9 nM
same,IC50,[2],< 25 nM
"CCOc1cc(-c2ccc(C(C)n3ccc4c(F)ccc(C(=O)NC5CC6(C5)CC(C(=O)O)C6)c43)cc2)ccn1 (racemic) [Example 118, (Sa)-6-(1-((racemic)-1-(4-(2-ethoxypyridin-4-yl)phenyl)-ethyl)-4-fluoro-1H-indole-7-carboxamido)spiro[3.3]heptane-2-carboxylic acid]",IC50,[1],2.6 nM
same,IC50,[2],31 nM
"O=C(NC1CC2(C1)CC(C(=O)O)C2)c1ccc(Cl)c2cnn(Cc3ccc(C4=CCCCC4)c(F)c3)c12 (stereo not drawn) [Example 81, (Sa)-6-(4-chloro-1-((2-fluoro-2′3′4′5′-tetrahydro-[1,1’-biphenyl]-4-yl)methyl)-1H-indazole-7-carboxamido)spiro[3.3]heptane-2-carboxylic acid]",IC50,[1],< 1 nM
same,IC50,[2],< 25 nM
"COc1cc(-c2ccc(Cn3ccc4c(F)ccc(C(=O)NC5CC6(C5)CC(C(=O)O)C6)c43)cc2)ccc1F (stereo not drawn) [Example 46, (Sa)-6-(4-fluoro-1-((4’-fluoro-3’-methoxy-[1,1′-biphenyl]-4-yl)methyl)-1H-indole-7-carboxamido)spiro[3.3]heptane-2-carboxylic acid]",IC50,[1],< 1 nM
same,IC50,[2],88 nM
"COc1ccc(-c2ccc(Cn3ccc4c(F)ccc(C(=O)NC5CC6(CC(CC(=O)O)C6)C5)c43)cc2)cn1 (stereo not drawn) [Example 138, (Ra)-2-(6-(4-Fluoro-1-(4-(6-methoxypyridin-3-yl)benzyl)-1H-indole-7-carboxamido)spiro[3.3]heptan-2-yl)acetic acid]",IC50,[1],< 1 nM
same,IC50,[2],25 nM
"COc1ccc(-c2ccc(Cn3ccc4c(F)ccc(C(=O)NC5CC6(C5)CC(C(=O)O)C6)c43)cc2)cc1F (stereo not drawn) [Example 47, (Sa)-6-(4-fluoro-1-((3’-fluoro-4’-methoxy-[1,1′-biphenyl]-4-yl)methyl)-1H-indole-7-carboxamido)spiro[3.3]heptane-2-carboxylic acid]",IC50,[1],< 1 nM
same,IC50,[2],79 nM
"N#Cc1cccc(-c2ccc(Cn3ncc4c(Cl)ccc(C(=O)NC5CC6(CC(CC(=O)O)C6)C5)c43)cc2)c1 (stereo not drawn) [Example 144, (Ra)-2-(6-(4-Chloro-1-((3′-cyano-[1,1-biphenyl]-4-yl)methyl)-1H-indazole-7-carboxamido)spiro[3.3]heptan-2-yl)acetic acid]",IC50,[1],< 1 nM
same,IC50,[2],< 25 nM
"CCOc1cc(-c2ccc(Cn3ccc4c(Cl)ccc(C(=O)NC5CC6(C5)CC(C(=O)O)C6)c43)cc2)ccn1 (stereo not drawn) [Example 70, (Sa)-6-(4-chloro-1-(4-(2-ethoxypyridin-4-yl)benzyl)-1H-indole-7-carboxamido)spiro[3.3]heptane-2-carboxylic acid]",IC50,[1],< 1 nM
same,IC50,[2],< 25 nM
"CNC(=O)c1ccc(-c2ccc(Cn3ccc4c(F)ccc(C(=O)NC5CC6(C5)CC(C(=O)O)C6)c43)cc2)cn1 (stereo not drawn) [Example 63, (Sa)-6-(4-fluoro-1-(4-(6-(methylcarbamoyl)pyridin-3-yl)benzyl)-1H-indole-7-carboxamido)spiro[3.3]heptane-2-carboxylic acid]",IC50,[1],< 1 nM
same,IC50,[2],90 nM
"COc1cc(F)cc(-c2ccc(Cn3ccc4c(F)ccc(C(=O)NC5CC6(C5)CC(C(=O)O)C6)c43)cc2)c1 (stereo not drawn) [Example 53, (Sa)-6-(4-fluoro-1-((3’-fluoro-5’-methoxy-[1,1′-biphenyl]-4-yl)methyl)-1H-indole-7-carboxamido)spiro[3.3]heptane-2-carboxylic acid]",IC50,[1],< 1 nM
same,IC50,[2],< 25 nM
"COc1ccc2cc(-c3ccc(Cn4ncc5cc(Cl)cc(C(=O)NC6CC7(CC(CC(=O)O)C7)C6)c54)cc3)ccc2n1 (stereo not drawn) [Example 147, (Ra)-2-(6-(5-Chloro-1-(4-(2-methoxyquinolin-6-yl)benzyl)-1H-indazole-7-carboxamido)spiro[3.3]heptan-2-yl)acetic acid]",IC50,[1],< 1 nM
same,IC50,[2],< 25 nM
"COc1ccc2ccc(Cn3ccc4c(F)ccc(C(=O)NC5CC6(C5)CC(C(=O)O)C6)c43)cc2c1 (stereo not drawn) [Example 40, (Sa)-6-(4-fluoro-1-((7-methoxynaphthalen-2-yl)methyl)-1H-indole-7-carboxamido)spiro[3.3]heptane-2-carboxylic acid]",IC50,[1],< 1 nM
same,IC50,[2],< 25 nM
"CNC(=O)c1cc(-c2ccc(Cn3ccc4c(F)ccc(C(=O)NC5CC6(C5)CC(C(=O)O)C6)c43)cc2)ccn1 (stereo not drawn) [Example 60, (Sa)-6-(4-fluoro-1-(4-(2-(methylcarbamoyl)pyridin-4-yl)benzyl)-1H-indole-7-carboxamido)spiro[3.3]heptane-2-carboxylic acid]",IC50,[1],< 1 nM
same,IC50,[2],40 nM
O=C(NC1CC2(C1)CC(C(=O)O)C2)c1ccc(F)c2ccn(Cc3ccc4c(Br)cccc4c3)c12 (stereo not drawn) [Example 43],IC50,[1],< 1 nM
same,IC50,[2],< 25 nM
"CCOc1cc(-c2ccc(Cn3ccc4c(F)ccc(C(=O)NC5CC6(C5)CC(C(=O)O)C6)c43)cc2)ccn1 (stereo not drawn) [Example 48, (Sa)-6-(1-(4-(2-ethoxypyridin-4-yl)benzyl)-4-fluoro-1H-indole-7-carboxamido)spiro[3.3]heptane-2-carboxylic acid]",IC50,[1],< 1 nM
same,IC50,[2],27 nM
"COc1ccc(C(=O)NC2CC3(CC(CC(=O)O)C3)C2)c2c1cnn2Cc1ccc(-c2ccccc2)cc1 (stereo not drawn) [Example 161, (Ra)-2-(6-(1-([1,1′-Biphenyl]-4-ylmethyl)-4-methoxy-1H-indazole-7-carboxamido)spiro[3.3]heptan-2-yl)acetic acid]",IC50,[1],< 1 nM
same,IC50,[2],63 nM
"CCNC(=O)c1cc(-c2ccc(Cn3ccc4c(F)ccc(C(=O)NC5CC6(C5)CC(C(=O)O)C6)c43)cc2)ccn1 (stereo not drawn) [Example 61, (Sa)-6-(1-(4-(2-(ethylcarbamoyl)pyridin-4-yl)benzyl)-4-fluoro-1H-indole-7-carboxamido)spiro[3.3]heptane-2-carboxylic acid]",IC50,[1],< 1 nM
same,IC50,[2],< 25 nM
"CCOc1cc(-c2ccc(C(C)n3ncc4cccc(C(=O)NC5CC6(C5)CC(C(=O)O)C6)c43)cc2)ccn1 (racemic) [Example 115, (Sa)-6-(1-((racemic)-1-(4-(2-ethoxypyridin-4-yl)phenyl)-ethyl)-1H-indazole-7-carboxamido)spiro[3.3]heptane-2-carboxylic acid]",IC50,[1],2.9 nM
same,IC50,[2],69 nM

# Reference: patent publication US12215093B2, “Bicyclic carboxamides and methods of use thereof” (Tempest Therapeutics, Inc., priority 2018, dated 2025)
